# In patent US7189526B2, “Apparatus for culture, process for preparing apparatus for culture, and culturing method” (Kyokuto Pharmaceutical Industrial Co., Ltd., priority 2002, dated 2007):
# B1: IL-2: interleukin 2 (IL-2, mouse, recombinant, SIGMA I-0523) (protein, UniProt P04351 21-169, looked up)
# Interleukin-2: APTSSSTSSSTAEAQQQQQQQQQQQQHLEQLLMDLQELLSRMENYRNLKLPRMLTFKFYLPKQATELKDLQCLEDELGPLRHVLDLTQSKSFQLEDAENFISNIRVTVVKLKGSDNTFECQFDDESATVVDFLRRWIAFCQSIISTSPQ
# Columns and labels:
# [1] = Diffusion or elution of trypan blue from trypan blue-containing agarose gel to PBS in a hollow; type: physicochemical; conditions: 0.5 w/v % agarose gel, 37° C., absorbance at 550 nm
# Experimental: To 5 ml of distilled water, 0.05 g of agarose (Takara, L 03 “TaKaRa”) was suspended (concentration: 1 w/v %). Then, to dissolve the agarose the suspension was heated at 121° C. for 15 minutes in an autoclave (Tomy Seiko, SS-320). A bottle containing the thus-obtained agarose solution was immersed in a water incubator set at 41° C. and the agarose solution was cooled to be 41° C.
# While, a 0.3% trypan blue-containing 2×PBS solution (phosphate buffered saline, 2×PBS) was prepared. This solution was sterilized by making the solution pass through a nitrocellulose filter membrane having a pore size of 0.2 μm. A bottle containing the sterilized 0.3% trypan blue-containing 2×PBS solution was immersed in a water incubator set at 41° C. and the solution was heated to be 41° C. […]
# At appropriate time intervals, 0.02 ml of the PBS (it seemed that this contained trypan blue) in the hollow that had been made in the center of the gel layer in a well of the culture plate was taken out. […] The absorbance of the diluted PBS was determined at a wave length of 550 nm. The background was determined by using a diluted PBS (concentration: ⅕) containing no trypan blue. The value that was obtained by subtracting the absorbance of the background from that of the PBS that had been taken out from the PBS in the hollow and had diluted was specified as a true absorbance of the diluted PBS. […]
# [2] = system: hybridoma KNA14.2; test: Inhibition against cell proliferation by aminopterin and its compensation by hypoxantin, amount of LDH of living cells; type: cell-based; conditions: for level of compensation of inhibition against cell proliferation by aminopterin: four days' culture, 1×10^5 cells per ml; for compensation of inhibition against cell proliferation by aminopterin: six days' culture, low hypoxantin concentration [A(+), H(0.1+)]
# Experimental: In a medium bottle, 0.2 g of Agarose (Takara, L 03 “TaKaRa”) was suspended in 20 ml of ultrapure water (concentration: 1 w/v %). Then, to dissolve the agarose the suspension was heated at 121° C. for 15 minutes in an autoclave (Tomy Seiko, SS-320). A bottle containing the thus-obtained agarose solution was immersed in a water incubator set at 41° C. and the agarose solution was cooled to be 41° C.
# While, 10.4 g of a powdery GIBCO™ Medium RPMI 1640 (INVITROGEN CORPORATION, Cat. No. 31800-014) was dissolved in 500 ml of ultrapure water (concentration: about twice the final concentration). This solution was sterilized by making the solution pass through a nitrocellulose filter membrane having a pore size of 0.2 μm. Thus, 2×RPMI 1640 medium solution was prepared.
# To 100 ml of the 2×RPMI 1640 medium solution, 100 ml of heat-inactivated bovine fetal serum was added under a aseptic condition. The thus-obtained heat-inactivated bovine fetal serum/2×RPMI 1640 medium solution was poured into four sterile bottles in an amount of 30 ml per bottle. The sterile bottles were immersed in a water incubator set at 41° C. and the medium solutions therein were heated to be 41° C.
# The concentration of aminopterin became twice that in the HAT medium.
# The concentrations of hypoxanthine and thymidine became twice those in the HAT medium.
# To a medium solution containing aminopterin in another sterile bottle, the HT supplements were added in amounts such that their total volume is one-five hundredth ( 1/500) of the total volume of the medium solution containing aminopterin and the HT supplements. The concentrations of hypoxanthine and thymidine became one-fifth of those in a HAT medium. The sterile bottles were continuously heated at 41° C.
# Then, at 41° C., 20 ml of the 1 w/v % agarose solution was mixed with 20 ml of medium solution No. 3 under an aseptic condition. By this, concentrations of the culture medium components of RPMI 1640 medium, heat-inactivated bovine fetal serum, aminopterin, and HT supplements, each of which had been prepared in an concentration of twice the final concentration, became one half of their concentrations in medium solution No. 3.
# While, 10 ml of ultrapure water which had been sterilized by filtration was added to 10 ml of medium solution No. 3. […] This solution was used as a control solution.
# After the mixed solution was poured into the wells, the culture plate was left cooling down for 60 minutes or more under room temperatures. Thus, the mixed solution was gelatinized. Hereafter, the gelatinized mixed solution will be designated as “an aminoprerin/HT-containing agarose gel.”
# In each well the layer of the aminoprerin/HT-containing agarose gel was punched out in its center by using a biopsy punch having a diameter of 6 mm to form a hollow.
# Into each of the thus-formed hollows, 0.17 ml of the culture medium solution not containing agarose (i.e., the control solution) was poured.
# [3] = system: hybridoma KNA14.2; conditions: method of the present invention; three days; 5×10^5 cells per ml; [A(+), H(+)]
# Experimental: The cell culture in Example 3 was repeated except that a hybridoma suspension containing hybridoma KNA14.2 in an amount of 5×10^5 per ml was used instead of the hybridoma suspension containing that hybridoma in an amount of 1×10^6 per ml.
# Three days after the culture was started, states of cells that were cultured in a RPMI1640 medium solution containing aminopterin and serum ([A(+), H(−)]) and that were cultured in a RPMI1640 medium solution containing aminopterin, HT supplements, and serum ([A(+), H(+)]) were photographed under a microscope (magnification: ×200).
# FIGS. 17 and 18 show cells that were cultured in the RPMI1640 medium solution containing aminopterin and serum ([A(+), H(−)]) and cells that were cultured in the RPMI1640 medium solution containing aminopterin, HT supplements, and serum ([A(+), H(+)]), respectively, by the method of the present invention (culture in a hollow that was formed in a gel).
# [4] = Diffusion or elution of IL-2 from IL-2-containing agarose gel to culture medium solution in a hollow (ELISA); type: physicochemical; conditions: 37° C.
# Experimental: Agarose (Takara, L 03 “TaKaRa”) was added to ultrapure water in a ratio of 1 gram per 100 ml of the water and was suspended (concentration: 1 w/v %). Then, to dissolve the agarose the suspension was heated at 121° C. for 15 minutes in an autoclave (Tomy Seiko, SS-320). A bottle containing the thus-obtained agarose solution was immersed in a water incubator set at 41° C. and the agarose solution was cooled to be 41° C.
# While, a powdery GIBCO™ Medium RPMI 1640 (INVITROGEN CORPORATION, Cat. No. 31800-014) (glutamine was contained) was added to ultrapure water in a ratio of 10.4 gram per 500 ml of the water and was dissolved (concentration: about twice the final concentration). This solution was sterilized by making the solution pass through a nitrocellulose filter membrane having a pore size of 0.2 μm. Thus, 2×RPMI 1640 medium solution was prepared.
# To 30 ml of this medium solution, 2-mercaptoethanol, penicillin, and streptomycin were added under an aseptic condition in such amounts as to be concentrations of 100 μM, 50 U/ml, and […], respectively. Then, to the thus-obtained solution, 6 ml of heat-inactivated bovine fetal serum was added. To the thus-obtained heat-inactivated bovine fetal serum/2×RPMI 1640 medium solution, interleukin 2 (IL-2, mouse, recombinant, SIGMA I-0523) was added in a ratio of 5 ng per ml of the solution. […]
# At appropriate time intervals after the solution was poured into the hollows, from three hollows solutions were taken out in an amount of 0.02 ml per hollow. […] Then, by using mouse IL-2 Elisa Ready-SET-Go! (e-Bioscience, Cat. No. 88-70224-77), IL-2 concentrations of the samples were determined according to the protocol stated in the instruction.
# The numerical values of the vertical axis were calculated as follows: After the solutions in the hollows were taken out, the IL-2-containing agarose gel was crushed and a solution was squeezed of the gel. For this solution an IL-2 concentration was determined in the same way as explained above. […]
molecule,measurement,setting,value
Cc1cc(-c2ccc(/N=N/c3c(S(=O)(=O)O)cc4cc(S(=O)(=O)O)cc(N)c4c3O)c(C)c2)ccc1/N=N/c1c(S(=O)(=O)O)cc2cc(S(=O)(=O)O)cc(N)c2c1O [trypan blue],concentration of trypan blue in PBS in the hollow relative to the equilibrium value,[1]; one hour after incubation started,above 50%
same,concentration of trypan blue in PBS in the hollow relative to the equilibrium value,[1]; three hours after incubation started,above 80%
"O=c1[nH]cnc2nc[nH]c12 [hypoxantin, hypoxanthine]",compensation of inhibition against cell proliferation by aminopterin through the salvage pathway,"[2]; [A(+), H(0.1+)] and [A(+), H(+)], 1×10^6 cells per ml, two, three and four days, hollows formed in gels",compensated
same,level of compensation of inhibition against cell proliferation by aminopterin,"[2]; conventional method (ninety-six-well culture plate), [A(+), H(0.1+)] and [A(+), H(+)]",about 40%
same,compensation of inhibition against cell proliferation by aminopterin,[2]; conventional method,scarecely compensated
same,level of compensation of inhibition against cell proliferation by aminopterin,"[2]; method of the present invention (hollow formed in a gel), [A(+), H(0.1+)] and [A(+), H(+)]",about 100%
same,compensation of inhibition against cell proliferation by aminopterin,[2]; method of the present invention,compensated with hypoxantin in the same level as that in the culture using the hypoxantin in its usual concentration
same,compensation of inhibition against cell proliferation by aminopterin (cell number and states under microscope),[3],compensated
B1,IL-2 concentration of the solution in the hollow relative to the equilibrium value,[4]; forty-eight hours after incubation started,about 70%
same,IL-2 concentration of the solution in the hollow relative to the equilibrium value,[4]; two hours after incubation started,about 10%
same,IL-2 concentration of the solution in the hollow relative to the equilibrium value,[4]; within six hours,at least 30%
